Values joined by “and” are separate entries in the source; they are usually repeats but may differ in a detail not shown here. Equal entries are not always repeated. Inconclusive results and toxic doses are left out. How the source made its calls: active means survival T/C of 150% or more; inactive means T/C below 125% in these data.
Tested on: P335 leukemia ip, BDF1 mice, survival T/C %
Assay: NCI In Vivo Anticancer Drug Screen. Data for tumor model P335 Leukemia (intraperitoneal) in B6D2F1 (BDF1) mice
Settings: endpoint: mean survival time, higher = longer survival
Method: The antitumor activity of compounds was measured in mice bearing transplantable tumors. Survival or tumor size were measured and the results are expressed as the measurement made in the treated group (T) divided by the measurement made in the vehicle treated control group (C). The tumor model used in this assay is P335 Leukemia (intraperitoneal) in B6D2F1 (BDF1) mice

[1] = dose: 16.0 mg/kg/injection, schedule: Q01DX Z (sc), vehicle: steriod suspending solution
[2] = dose: 125.0 mg/kg/injection, schedule: Q01DX Z (sc), vehicle: steriod suspending solution
[3] = dose: 500.0 mg/kg/injection, schedule: Q01DX Z (sc), vehicle: steriod suspending solution
[4] = dose: 1000.0 mg/kg/injection, schedule: Q01DX Z (sc), vehicle: steriod suspending solution
[5] = dose: 12.5 mg/kg/injection, schedule: Q01DX Z (ip), vehicle: carboxymethylcellulose (CMC)
[6] = dose: 25.0 mg/kg/injection, schedule: Q01DX Z (ip), vehicle: carboxymethylcellulose (CMC)

Measured: T/C

COc1cc2c(c(OC)c1OC)-c1ccc(OC)c(=O)cc1[C@@H](NC(C)=O)CC2
inactive: dose: 63.0 micrograms/kg/injection, schedule: Q01DX Z (ip), vehicle: saline 104 % of control | dose: 125.0 micrograms/kg/injection, schedule: Q01DX Z (ip), vehicle: saline 101 % of control | dose: 250.0 micrograms/kg/injection, schedule: Q01DX Z (ip), vehicle: saline 104 % of control

CCCCNc1ncnc2c1cnn2C
inactive: dose: 4.0 mg/kg/injection, schedule: Q01DX Z (ip), vehicle: carboxymethylcellulose (CMC) 86 % of control | dose: 8.0 mg/kg/injection, schedule: Q01DX Z (ip), vehicle: carboxymethylcellulose (CMC) 86 % of control | dose: 16.0 mg/kg/injection, schedule: Q01DX Z (ip), vehicle: carboxymethylcellulose (CMC) 96 % of control | dose: 31.25 mg/kg/injection, schedule: Q01DX Z (ip), vehicle: carboxymethylcellulose (CMC) 101 % of control | dose: 62.5 mg/kg/injection, schedule: Q01DX Z (ip), vehicle: carboxymethylcellulose (CMC) 93 % of control

N=[N+]=CC(=O)OCC(N)C(=O)O (stereo not drawn)
inactive: dose: 1.18 mg/kg/injection, schedule: Q01DX Z (ip), vehicle: saline 101 % of control | dose: 2.35 mg/kg/injection, schedule: Q01DX Z (ip), vehicle: saline 122 % of control | dose: 4.69 mg/kg/injection, schedule: Q01DX Z (ip), vehicle: saline 122 % of control | dose: 25.0 mg/kg/injection, schedule: Q01DX Z (ip), vehicle: saline 106 % of control | dose: 50.0 mg/kg/injection, schedule: Q01DX Z (ip), vehicle: saline 94 % of control

Nc1ncnc2c1ccn2C1OC(CO)C(O)C1O (stereo not drawn)
inactive: dose: 0.08 mg/kg/injection, schedule: Q01DX Z (ip), vehicle: carboxymethylcellulose (CMC) 110 % of control | dose: 0.16 mg/kg/injection, schedule: Q01DX Z (ip), vehicle: carboxymethylcellulose (CMC) 97 % of control | dose: 0.31 mg/kg/injection, schedule: Q01DX Z (ip), vehicle: carboxymethylcellulose (CMC) 95 % of control | dose: 0.32 mg/kg/injection, schedule: Q01DX Z (ip), vehicle: carboxymethylcellulose (CMC) 121 % of control | dose: 1.25 mg/kg/injection, schedule: Q01DX Z (ip), vehicle: carboxymethylcellulose (CMC) 93 % of control

Nc1nc(=S)c2[nH]cnc2[nH]1
inactive: dose: 0.12 mg/kg/injection, schedule: Q01DX Z (ip), vehicle: carboxymethylcellulose (CMC) 92 % of control | dose: 0.25 mg/kg/injection, schedule: Q01DX Z (ip), vehicle: carboxymethylcellulose (CMC) 95 % of control | dose: 0.5 mg/kg/injection, schedule: Q01DX Z (ip), vehicle: carboxymethylcellulose (CMC) 95 % of control | dose: 1.0 mg/kg/injection, schedule: Q01DX Z (ip), vehicle: carboxymethylcellulose (CMC) 101 % of control | dose: 2.0 mg/kg/injection, schedule: Q01DX Z (ip), vehicle: carboxymethylcellulose (CMC) 95 % of control

Oc1cc(CN(CCCl)CCCl)c(O)cc1CN(CCCl)CCCl
inactive: dose: 0.24 mg/kg/injection, schedule: Q01DX Z (sc), vehicle: steriod suspending solution 95 % of control | dose: 0.47 mg/kg/injection, schedule: Q01DX Z (sc), vehicle: steriod suspending solution 109 % of control | dose: 0.94 mg/kg/injection, schedule: Q01DX Z (sc), vehicle: steriod suspending solution 103 % of control | dose: 1.87 mg/kg/injection, schedule: Q01DX Z (sc), vehicle: steriod suspending solution 104 % of control | dose: 7.5 mg/kg/injection, schedule: Q01DX Z (sc), vehicle: steriod suspending solution 87 % of control

CS(=O)(=O)OCCCl
inactive: dose: 0.8 mg/kg/injection, schedule: Q01DX Z (ip), vehicle: carboxymethylcellulose (CMC) 98 % of control | dose: 1.6 mg/kg/injection, schedule: Q01DX Z (ip), vehicle: carboxymethylcellulose (CMC) 93 % of control | dose: 3.1 mg/kg/injection, schedule: Q01DX Z (ip), vehicle: carboxymethylcellulose (CMC) 102 % of control | dose: 6.2 mg/kg/injection, schedule: Q01DX Z (ip), vehicle: carboxymethylcellulose (CMC) 86 % of control

C[C@H]1C(=O)O[C@@H]2CCN3CC=C(COC(=O)[C@](C)(O)[C@@]1(C)O)[C@H]23
inactive: dose: 3.75 mg/kg/injection, schedule: Q01DX Z (ip), vehicle: carboxymethylcellulose (CMC) 87 % of control | dose: 7.5 mg/kg/injection, schedule: Q01DX Z (ip), vehicle: carboxymethylcellulose (CMC) 94 % of control | dose: 15.0 mg/kg/injection, schedule: Q01DX Z (ip), vehicle: carboxymethylcellulose (CMC) 91 % of control and 93 % of control | dose: 30.0 mg/kg/injection, schedule: Q01DX Z (ip), vehicle: carboxymethylcellulose (CMC) 96 % of control

CC[C@@H](c1ccc(O)cc1)[C@@H](CC)c1ccc(O)cc1
inactive: [1] 96 % of control | dose: 31.25 mg/kg/injection, schedule: Q01DX Z (sc), vehicle: steriod suspending solution 93 % of control | [2] 96 % of control | [3] 104 % of control | [4] 95 % of control

O=P1(N(CCCl)CCCl)NCCCO1 (stereo not drawn)
inactive: dose: 6.25 mg/kg/injection, schedule: Q01DX Z (ip), vehicle: saline 113 % of control | dose: 200.0 mg/kg/injection, schedule: Q01DX Z (ip), vehicle: saline 107 % of control

O=c1[nH]c(=O)n(C2CC(O)C(CO)O2)cc1Br (stereo not drawn)
inactive: dose: 250.0 mg/kg/injection, schedule: Q01DX Z (ip), vehicle: carboxymethylcellulose (CMC) 112 % of control | dose: 500.0 mg/kg/injection, schedule: Q01DX Z (ip), vehicle: carboxymethylcellulose (CMC) 115 % of control | dose: 1000.0 mg/kg/injection, schedule: Q01DX Z (ip), vehicle: carboxymethylcellulose (CMC) 94 % of control and 121 % of control

CC(CCC(C)OS(C)(=O)=O)OS(C)(=O)=O (stereo not drawn)
inactive: dose: 5.0 mg/kg/injection, schedule: Q01DX Z (ip), vehicle: carboxymethylcellulose (CMC) 88 % of control | dose: 10.0 mg/kg/injection, schedule: Q01DX Z (ip), vehicle: carboxymethylcellulose (CMC) 90 % of control | dose: 20.0 mg/kg/injection, schedule: Q01DX Z (ip), vehicle: carboxymethylcellulose (CMC) 87 % of control

CN(Cc1cnc2nc(N)nc(N)c2n1)c1ccc(C(=O)N[C@@H](CCC(=O)O)C(=O)O)cc1
inactive: dose: 0.31 mg/kg/injection, schedule: Q01DX Z (ip), vehicle: other 110 % of control | dose: 3.0 mg/kg/injection, schedule: Q01DX Z (ip), vehicle: other 88 % of control

CSc1ncnc2nc[nH]c12
inactive: [5] 96 % of control | dose: 50.0 mg/kg/injection, schedule: Q01DX Z (ip), vehicle: carboxymethylcellulose (CMC) 90 % of control | dose: 50.0 mg/kg/injection, schedule: Q01DX Z (ip), vehicle: methylcellulose (MC) 87 % of control

CS(=O)(=O)OCC(O)C(O)COS(C)(=O)=O (stereo not drawn)
inactive: dose: 187.5 mg/kg/injection, schedule: Q01DX Z (ip), vehicle: saline 96 % of control | dose: 375.0 mg/kg/injection, schedule: Q01DX Z (ip), vehicle: saline 111 % of control | dose: 750.0 mg/kg/injection, schedule: Q01DX Z (ip), vehicle: saline 102 % of control

CN(Cc1cnc2nc(N)nc(N)c2n1)c1c(Cl)cc(C(=O)NC(CCC(=O)O)C(=O)O)cc1Cl (stereo not drawn)
inactive: [6] 104 % of control and 121 % of control

C[C@]12CCC(=O)C[C@H]1CC[C@@H]1[C@@H]2CC[C@@]2(C)[C@H]1CC[C@]2(C)O
inactive: [1] 106 % of control | dose: 31.0 mg/kg/injection, schedule: Q01DX Z (sc), vehicle: steriod suspending solution 93 % of control | dose: 62.5 mg/kg/injection, schedule: Q01DX Z (sc), vehicle: steriod suspending solution 98 % of control and 111 % of control | [2] 111 % of control | dose: 250.0 mg/kg/injection, schedule: Q01DX Z (sc), vehicle: steriod suspending solution 109 % of control | [3] 109 % of control | [4] 98 % of control

CC(=O)Nc1ccc2nc3ccc(NC(C)=O)cc3[n+](-c3ccccc3)c2c1
inactive: [5] 98 % of control

S=P(N1CCOCC1)(N1CC1)N1CC1
inactive: [5] 101 % of control | [6] 93 % of control
